Columns and labels:
[1] = Kinetic analysis of tamavidin 2-biotin interaction using a Biacore 3000 biosensor (surface plasmon resonance); assay type: binding; details: Biacore 3000, 25° C.
Protocol: Kinetic Analysis of Tamavidin 2 (TM2)-Biotin Interaction Using a Biacore Biosensor
Highly-purified BSA (2 mg, Sigma) and NHS-biotin (1 mg, Pierce) were dissolved in 1 ml of 50 mM sodium borate pH 8.0 and incubated at 4° C. for 2 hours. The NHS-biotin (EZ-Link NHS-LC-LC-Biotin) had been dissolved in a small volume of DMSO before addition. This solution was introduced into a dialysis tube (MWCO 6-8,000) and dialyzed overnight at 4° C. against 50 mM sodium carbonate pH 6.7. The biotin-BSA conjugate thus prepared (MW 67 kDa, 30 μM) was used as a ligand (a substance immobilized on a sensor chip) for a Biacore® biosensor. On the other hand, recombinant tamavidin 2 was prepared as an analyte (a substance flowing through channels) and analyzed for intermolecular interactions using a Biacore® 3000 (a biosensor designed on the principle of surface plasmon resonance, Biacore Inc.). Biotin-BSA and BSA alone (serving as a negative control) were each immobilized on CM5 sensor chips by amine coupling techniques. Their immobilized amount was adjusted to around 200 RU. BSA-immobilized chips were placed in flow cells 1 and 3, while biotin-BSA-immobilized chips were placed in flow cells 2 and 4. Tamavidin 2 was loaded into flow cells 1 and 2, while streptavidin was loaded into flow cells 3 and 4, each being loaded at a flow rate of 20 μl/min for 2 minutes in running buffer [10 mM HEPES pH 7.4, 150 mM NaCl, 3 mM EDTA, 0.005% Surfactant 20 (Biacore Inc.)]. The samples were then monitored for their dissociation over 60 minutes. […] The dissociation constant (Kd) was determined from kd/ka.
It should be noted that when the regeneration step was skipped, Rmax (the maximum binding amount of an analyte) was reduced ever time the measurement at each concentration was made. For this reason, Rmax was calculated by local fitting for each concentration during analysis. […]

[2] = Activity measurement by means of fluorescent biotin (method of Kada et al.); assay type: binding; details: room temperature, 10 minutes
Protocol: By means of fluorescent biotin, tamavidin 2 was measured for its biotin-binding activity according to the method of Kada et al. (Biochim. Biophys. Acta., 1427: 44-48, (1999)). Solutions were prepared to contain the purified TM2 at stepwise concentrations from 0 pmol to 486 pmol in 200 μl assay buffer (50 mM NaH2PO4, 100 mM NaCl, 1 mM EDTA (pH 7.5)). These solutions were each mixed with 50 μL (1 nmol) of a 20 pmol/μL fluorescent biotin solution (biotin-4-fluorescein; Molecular Probe) and allowed to stand at room temperature for 10 minutes, followed by measuring the fluorescence intensity with a Las-3000 system (FUJIFILM). As a result, 0.274 nmol of TM2 was bound to nmol of fluorescent biotin. Namely, 3.6 mol of fluorescent biotin was bound to 1 mol of tamavidin. […] In the case of streptavidin, 3.4 mol of fluorescent biotin was bound per mol of streptavidin.

[3] = test system: salmon sperm DNA; assay: Test for non-specific binding to DNA (slot blot, antibody detection); details: 25 μg/mL protein, salmon sperm DNA 10 μg to 0.3 μg on membrane
Protocol: TM2 was analyzed for its non-specific binding to DNA. Serial dilutions of salmon sperm DNA (10 μg to 0.3 μg) in 2×SSC buffer were alkali-denatured and adsorbed onto a Hybond N+ membrane (Amersham Biosciences) using Bio-Dot SF (BIO-RAD). The membrane was blocked with 5×Denhardt's solution (0.1% BSA, 0.1% Ficoll, 0, 1% polyvinylpyrrolidone) and then immersed in a 25 μg/mL TM2, streptavidin or avidin solution at room temperature for 90 minutes. The membrane was then washed three times with TTBS buffer (TBS buffer containing 0.05% Tween 20) at room temperature for 5 minutes. The membrane was blocked with TBS buffer containing 0.5% skimmed milk and 0.01% Tween 20 for 1 hour. The primary antibodies used were rabbit anti-TM2 antibody (purified as described above) for TM2, rabbit anti-streptavidin antibody (SIGMA) for streptavidin, and rabbit anti-avidin antibody (Abcam) for avidin, which were diluted to give the same antibody titer before use. Antigen-antibody reaction with each primary antibody was performed overnight at room temperature. […] The membrane was washed three times with TTBS buffer at room temperature for 5 minutes, and then developed with an Alkaline Phosphatase substrate kit II, vector Black (Funakoshi Co., Ltd., Japan), followed by quantification with a Las-3000 system (FUJIFILM).

[4] = Heat resistance: protein stability (heating, SDS-PAGE band quantification); assay type: physicochemical; details: heated 20 minutes, soluble protein, SDS-PAGE, no biotin
Protocol: (§1) 0.2 μg/μL TM2 and 0.2 μg/μL streptavidin were heated in 10 μL (2 μg) volumes at room temperature, 50° C., 60° C., 70° C., 80° C., 90° C. or 99° C. for 20 minutes, followed by centrifugation at 15000 rpm for 10 minutes. Each supernatant (soluble protein) was suspended in an equal volume of 2×SDS sample buffer (100 mM Tris-HCl pH 6.8, 12% 2-mercaptoethanol, 2% SDS, 20% glycerol), heated at 95° C. for 10 minutes and then analyzed by SDS-PAGE. Protein bands were detected by CBB staining. Using a Las-3000 system (FUJIFILM), a calibration curve was prepared based on quantification markers (LMW ELECTROPHORESIS CALIBRATION KIT; Pharmacia Biotech) and used to quantify the protein bands. […]
as §1, with “Purified tamavidin 1 at a concentration of 0.2” for “0.2”, “was” for “TM2 and 0.2 μg/μL streptavidin were”

[5] = Heat resistance: fluorescent biotin-binding activity of heated biotin-binding proteins; details: for temperature which caused a 50% reduction in fluorescence intensity decrement compared to the unheated sample: free protein, heated 20 minutes; for reduction of binding activity to fluorescent biotin: 20 minutes
Protocol: Based on the property of fluorescent biotin to lose its fluorescence intensity when bound to a biotin-binding site in a biotin-binding protein, tamavidin 2 was compared with streptavidin and avidin for biotin-binding capacity under high temperature conditions.
About 0.25 μg/μL TM2 and streptavidin were heated at room temperature, 50° C., 60° C., 70° C., 80° C. or 90° C. for 20 minutes. Solutions were prepared to contain the heat-treated TM2 or streptavidin at stepwise concentrations from 0 μL to 27 μL in 150 μL assay buffer (50 mM NaH2PO4, 100 mM NaCl, 1 mM EDTA (pH 7.5)). These solutions were each mixed with 50 μL (250 pmol) of a 5 pmol/μL fluorescent biotin solution (biotin-4-fluorescein; Molecular Probe) and allowed to stand at room temperature for 20 minutes, followed by measuring the fluorescence intensity with a Las-3000 system (FUJIFILM).
Heat resistance test on the biotin-binding proteins was accomplished as follows. About 0.25 μg/μL biotin-binding protein was heated at room temperature, 50° C., 60° C., 70° C., 80° C. or 90° C. for 20 minutes. Solutions were prepared to contain the heated biotin-binding protein at stepwise concentrations from 0 μL to 12 μL in 150 μL assay buffer. These solutions were each mixed with 50 μL (100 pmol) of a 2 pmol/μL fluorescent biotin solution and allowed to stand at room temperature for 20 minutes, followed by measuring the fluorescence intensity at Ex=460 nm and Em=525 nm with an Infinite M200 (TECAN).

[6] = background art; cited from earlier work
[7] = 1:1 binding model, biotin-BSA ligand

For “Streptavidin: biotin-binding protein derived from an actinomycete strain (Streptomyces avidinii) [reference compound]”, the “Association rate constant ks” value [1, 7] was 2.28e+06 M⁻¹ s⁻¹, the “Dissociation rate constant kd” value [1, 7] was 2.52e-06 s⁻¹ and the Kd ([1]; determined from kd/ka, read-out: Dissociation constant Kd) was 1.11 pM. The “fluorescent biotin bound per mol of protein” value [2] was 3.4 mol, the “non-specific binding to DNA (staining intensity versus DNA concentration)” value [3] was “not strongly affected by DNA concentration” and the “temperature which caused a 50% reduction in protein band intensity” value [4] was 71 °C. For the same substance, the “temperature which caused a 50% reduction in fluorescence intensity decrement compared to the unheated sample” value [5] was 73 °C, the “reduction of binding activity to fluorescent biotin” value (“reduction of binding activity” below) ([5]; heated at 70° C.) was 40% and the “reduction of binding activity” value ([5]; heated at 80° C.) was 80%. The isoelectric point [6] was “around neutral pH”.

For “avidin: albumen-derived basic glycoprotein binding biotin”, the “non-specific binding to DNA (staining intensity versus DNA concentration)” value [3] was “DNA concentration-dependent increase in its staining intensity”, the “temperature which caused a 50% reduction in fluorescence intensity decrement compared to the unheated sample” value [5] was 78 °C and the “reduction of binding activity” value ([5]; heated at 70° C.) was 10%. For the same substance, the “reduction of binding activity” value ([5]; heated at 80° C.) was 70% and the isoelectric point [6] was “exceeding 10”.
